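Where inhibition never reached the appropriate level, the endpoint shown equals the highest concentration tested. Otherwise, values were interpolated linearly from a five-concentration, 48-hour dose response in 96-well plates. TGI: total growth inhibition.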
Assays:
Experiment in all cases: DTP human tumour cell line panel, 48 h
COLO 205 colon = tested on: COLO 205 colon
K-562 leukemia = tested on: K-562 leukemia
SF-295 CNS = tested on: SF-295 CNS
SF-539 CNS = tested on: SF-539 CNS
SN12C renal = tested on: SN12C renal
XF 498 CNS = tested on: XF 498 CNS
RXF 393 renal = tested on: RXF 393 renal
NCI-H226 lung = tested on: NCI-H226 lung
OVCAR-5 ovarian = tested on: OVCAR-5 ovarian
EKVX NSCLC = tested on: EKVX NSCLC
A498 renal = tested on: A498 renal
UO-31 renal = tested on: UO-31 renal
KM12 colon = tested on: KM12 colon
HT29 colon = tested on: HT29 colon
HCT-15 colon = tested on: HCT-15 colon
OVCAR-3 ovarian = tested on: OVCAR-3 ovarian
ACHN renal = tested on: ACHN renal
DMS 273 small cell lung = tested on: DMS 273 small cell lung
SW-620 colon = tested on: SW-620 colon
RXF-631 renal = tested on: RXF-631 renal
SNB-19 CNS = tested on: SNB-19 CNS
SK-MEL-5 melanoma = tested on: SK-MEL-5 melanoma
HL-60(TB) leukemia = tested on: HL-60(TB) leukemia
U251 CNS = tested on: U251 CNS
SK-MEL-2 melanoma = tested on: SK-MEL-2 melanoma
CCRF-CEM leukemia = tested on: CCRF-CEM leukemia
IGROV1 ovarian = tested on: IGROV1 ovarian
M19-MEL melanoma = tested on: M19-MEL melanoma
786-0 renal = tested on: 786-0 renal
HOP-62 NSCLC = tested on: HOP-62 NSCLC
NCI-H522 lung = tested on: NCI-H522 lung
NCI-H23 lung = tested on: NCI-H23 lung
M14 melanoma = tested on: M14 melanoma
NCI-H460 lung = tested on: NCI-H460 lung
SR leukemia = tested on: SR leukemia
TK-10 renal = tested on: TK-10 renal
CAKI-1 renal = tested on: CAKI-1 renal
UACC-257 melanoma = tested on: UACC-257 melanoma
RPMI-8226 leukemia = tested on: RPMI-8226 leukemia
HCC-2998 colon = tested on: HCC-2998 colon
LOX IMVI melanoma = tested on: LOX IMVI melanoma
SK-OV-3 ovarian = tested on: SK-OV-3 ovarian
UACC-62 melanoma = tested on: UACC-62 melanoma
A549 NSCLC = tested on: A549 NSCLC
OVCAR-8 ovarian = tested on: OVCAR-8 ovarian
MALME-3M melanoma = tested on: MALME-3M melanoma
HOP-18 NSCLC = tested on: HOP-18 NSCLC
MOLT-4 leukemia = tested on: MOLT-4 leukemia
DLD-1 colon = tested on: DLD-1 colon
SNB-75 CNS = tested on: SNB-75 CNS
HCT-116 colon = tested on: HCT-116 colon
KM20L2 colon = tested on: KM20L2 colon
OVCAR-4 ovarian = tested on: OVCAR-4 ovarian
LXFL 529 NSCLC = tested on: LXFL 529 NSCLC
SNB-78 CNS = tested on: SNB-78 CNS
SK-MEL-28 melanoma = tested on: SK-MEL-28 melanoma
HOP-92 NSCLC = tested on: HOP-92 NSCLC
DMS 114 small cell lung = tested on: DMS 114 small cell lung

Measured: TGI

Cc1ccc(S(=O)(=O)N(C=O)N=C2CCN(Cc3ccccc3)CC2)cc1
not listed: SK-MEL-28 melanoma | HOP-92 NSCLC | DMS 114 small cell lung
> 100 µM: all other assays above

O=C1CCC(Cl)=CC2CCCN12 (configuration not stated)
not listed: SF-295 CNS | XF 498 CNS | KM12 colon | OVCAR-3 ovarian | DMS 273 small cell lung | RXF-631 renal | CCRF-CEM leukemia | NCI-H522 lung | SR leukemia | HOP-18 NSCLC | OVCAR-4 ovarian
> 100 µM: all other assays above
